According to patent US20110251066A1, “ISOXAZOLE DERIVATIVES FOR USE AS PLANT GROWTH REGULATORS” (SYNGENTA CROP PROTECTION LLC, priority 2008, published 2011):
Blank lines part the entries; values can stand above or below the molecule they belong to.

Tests used:
[1] = system: grape seedlings cultivar (cv.) Gutedel; assay: Plant growth regulation effects on grape seedlings; format: in vivo; conditions: 200 ppm, spray chamber, 8 days at 22° C. and 80% r.h.
Method: Five weeks old grape seedlings cultivar (cv.) Gutedel were treated with the formulated test compound in a spray chamber. After an incubation period of 8 days at 22° C. and 80% relative humidity (r.h.) in a greenhouse, the plant growth regulating effects were assessed.

summer wheat = assay: Plant growth effects on cereals: spray at beginning of stem elongation, visual growth reduction; format: in vivo; conditions: 225 g a.i./ha spray, 28 days after spray, visually evaluated versus untreated control
Description: (§1) Plants of winter wheat and summer wheat were sprayed at the beginning of stem elongation, three weeks after sowing. Formulated test compounds 144, 145 and 146 were sprayed at 225 g a.i. (active ingredient)/ha, each, top over leaf with a boom sprayer on the plants. After the spray the plants were transferred to a greenhouse and 28 days after the spray the plant growth reduction was visually evaluated versus an untreated control.

winter wheat = assay: as above; format: in vivo; conditions: 225 g a.i./ha spray, 28 days after spray, visually evaluated versus untreated control
Description: as §1

Botrytis cinerea = assay: Fungal growth inhibition in nutrient broth, microtiter plate, photometric; format: cell-based; conditions: 200 ppm, 24° C., 72 hours
Method: (§2) Botrytis cinerea (Gray mould): Conidia of the fungus from cryogenic storage were directly mixed into nutrient broth (PDB potato dextrose broth). After placing a (DMSO) solution of the test compounds into a microtiter plate (96-well format) the nutrient broth containing the fungal spores was added. The test plates were incubated at 24° C. and the inhibition of growth was determined photometrically after 72 hours. Compound (S)-(146) gave at least 80% control of Botrytis cinerea at 200 ppm.

Mycosphaerella arachidis = assay: as above; format: cell-based, Mycosphaerella arachidis (syn. Cercospora arachidicola); conditions: 200 ppm, 24° C., 72 hours, 620 nm
Method: as §2, with “Mycosphaerella arachidis (syn. Cercospora arachidicola), Brown leaf spot of groundnut (peanut):” for “Botrytis cinerea (Gray mould):”, “hours at 620 nm.” for “hours.”, “Mycosphaerella arachidis” for “Botrytis cinerea”

Septoria tritici = assay: as above; format: cell-based; conditions: 200 ppm, 24° C., 72 hours
Method: as §2, with “Septoria tritici (leaf blotch):” for “Botrytis cinerea (Gray mould):”, “Septoria tritici” for “Botrytis cinerea”

Monographella nivalis = assay: as above; format: cell-based; conditions: 200 ppm, 24° C., 72 hours, 620 nm
Method: as §2, with “Monographella nivalis (syn. Microdochium nivale, Fusarium nivale), snow mould, foot rot of cereals:” for “Botrytis cinerea (Gray mould):”, “hours at 620 nm.” for “hours.”, “Monographella nivalis” for “Botrytis cinerea”

Fusarium culmorum = assay: as above; format: cell-based; conditions: 200 ppm, 24° C., 48 hours
Method: as §2, with “Fusarium culmorum (root rot):” for “Botrytis cinerea (Gray mould):”, “48” for “72”, “Fusarium culmorum” for “Botrytis cinerea”

Rhizoctonia solani = assay: as above; format: cell-based; conditions: 200 ppm, 24° C., 48 h
Method: as §2, with “Rhizoctonia solani (foot rot, damping-off): Mycelial fragments” for “Botrytis cinerea (Gray mould): Conidia”, “fungus, prepared” for “fungus”, “a fresh liquid culture,” for “cryogenic storage”, “mycelium” for “spores”, “48 h.” for “72 hours.”, “Rhizoctonia solani” for “Botrytis cinerea”

[2] = system: wheat plants cultivar (cv.). Riband; assay: Plant growth regulation effects on wheat plants; format: in vivo; conditions: 200 ppm, spray chamber, 8 days at 22° C. and 80% r.h.
Method: Two weeks old wheat plants cultivar (cv.). Riband were treated with the formulated test compound in a spray chamber. After an incubation period of 8 days at 22° C. and 80% relative humidity (r.h.) in a greenhouse, the plant growth regulating effects were assessed.

[3] = PGR activity of separated enantiomers (test not specified); conditions: (R)- versus (S)-enantiomer of compound 146

SMILES: COc1ncccc1-c1onc(-c2ccc(Cl)cc2)c1C(O)c1cncnc1 (stereo not drawn) [Compound 149, 3-(4-Chlorophenyl)-5-(2-Methoxypyridine)-4-[(3-pyrimidyl)hydroxymethyl]-isoxazole]
plant growth regulating effect (plant height) [1]: plant height decreased

melting point: 138 to 140 °C
SMILES: OC(c1cccnc1)c1c(-c2ccc(Cl)cc2F)noc1-c1ccc(F)cc1F (stereo not drawn) [Compound 146, 3-(2-Fluoro-4-Chlorophenyl)-5-(2,4-difluorophenyl)-4-[(3-pyridyl)hydroxymethyl]-isoxazole]
Summer Wheat % reduction (plant growth reduction) (summer wheat): 10% | Winter Wheat % reduction (plant growth reduction) (winter wheat): 10%

SMILES: OC(c1cncnc1)c1c(-c2ccc(Cl)cc2)noc1-c1ccc(F)cc1F (stereo not drawn) [Compound 151, 3-(4-Chlorophenyl)-5-(2,4-Fluorophenyl)-4-[(3-pyrimidyl)hydroxymethyl]-isoxazole]
plant growth regulating effect (plant height) [1]: plant height decreased

SMILES: OC(c1cncnc1)c1c(-c2ccc(Cl)cc2)noc1-c1ccc(F)cc1F (stereo not drawn) [Compound 145]
Summer Wheat % reduction (plant growth reduction) (summer wheat): 17.5% | Winter Wheat % reduction (plant growth reduction) (winter wheat): 5% | plant growth regulating effect (plant height) [1]: plant height decreased

SMILES: O[C@@H](c1cccnc1)c1c(-c2ccc(Cl)cc2F)noc1-c1ccc(F)cc1F (single isomer, unassigned) [Compound (S)-(146)]
control of Botrytis cinerea (Botrytis cinerea): at least 80% | control of Mycosphaerella arachidis (Mycosphaerella arachidis): at least 80% | control of Septoria tritici (Septoria tritici): at least 80% | control of Monographella nivalis (Monographella nivalis): at least 80% | control of Fusarium culmorum (Fusarium culmorum): at least 80% | control of Rhizoctonia solani (Rhizoctonia solani): at least 80%

SMILES: OC(c1cccnc1)c1c(-c2ccc(F)cc2F)noc1-c1ccc(F)cc1Cl (stereo not drawn) [Compound 152, 3-(2,4-Diluoro)-5-(2-Chloro-4-Fluorophenyl)-4-[(3-pyridyl)hydroxymethyl]-isoxazole]
plant growth regulating effect (plant height) [1]: plant height decreased

SMILES: OC(c1cncnc1)c1c(-c2ccc(Cl)cc2F)noc1-c1ccc(F)cc1F (stereo not drawn) [Compound 144]
Summer Wheat % reduction (plant growth reduction) (summer wheat): 10% | Winter Wheat % reduction (plant growth reduction) (winter wheat): 7.5% | plant growth regulating effect (plant height) [1]: plant height decreased | plant growth regulating effect (plant height) [2]: plant height decreased

SMILES: OC(c1cncnc1)c1c(-c2ccc(Cl)cc2)noc1-c1ccc(F)cc1 (stereo not drawn) [Compound 150, 3-(4-Chlorophenyl)-5-(4-Fluorophenyl)-4-[(3-pyrimidyl)hydroxymethyl]-isoxazole]
plant growth regulating effect (plant height) [1]: plant height decreased

SMILES: OC(c1cncnc1)c1c(-c2ccc(Cl)cc2F)noc1-c1ccccc1Cl (stereo not drawn) [Compound 148, 3-(2-Fluoro-4-Chlorophenyl)-5-(2-Chlorophenyl)-4-[(3-pyrimidyl)hydroxymethyl]-isoxazole]
plant growth regulating effect (plant height) [1]: plant height decreased

SMILES: O[C@H](c1cccnc1)c1c(-c2ccc(Cl)cc2F)noc1-c1ccc(F)cc1F (single isomer, unassigned) [Compound 153]
plant growth regulating effect (plant height) [1]: plant height decreased | PGR activity, enantiomer comparison [3]: majority of PGR activity

SMILES: OC(c1cncnc1)c1c(-c2ccc(Cl)cc2Cl)noc1-c1ccccc1Cl (stereo not drawn) [Compound 147, 3-(2,4-Chlorophenyl)-5-(2-Chlorophenyl)-4-[(3-pyrimidyl)hydroxymethyl]-isoxazole]
plant growth regulating effect (plant height) [1]: plant height decreased
